{"source": "PubChem BioAssay AID2202554", "about": "(NIEHS Division of Translational Toxicology (DTT))", "note": "Results filed as inconclusive are left out. Active and inactive are the calls of the source. The rule behind the calls is not given here.", "data": [{"test_system": "S. typhimurium/E. coli reverse mutation, colony counts", "test": "Bacterial reverse mutation test (aka Ames test) summary data", "summary_of_the_method": "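Revertant colony counts on plates, compared with untreated controls, after about two days of growth. Exposure with or without liver S9 (rat/hamster/mouse), dose range per strain, 20-min 37° C preincubation or direct plate incorporation. Strains: his⁻ Salmonella, trp⁻ E. coli WP2 uvrA pKM101.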", "values": [{"smiles": "Nc1c(N=Nc2ccc([N+](=O)[O-])cc2)c(S(=O)(=O)O)cc2cc(S(=O)(=O)O)c(N=Nc3ccccc3)c(O)c12", "outcome": "active; positive"}, {"smiles": "Cl", "outcome": "inactive; negative"}, {"smiles": "IC(I)I", "outcome": "active; positive"}, {"smiles": "CCCCCCCCC", "outcome": "inactive; negative"}, {"smiles": "Cc1c[nH]c(=S)[nH]c1=O", "outcome": "inactive; negative"}, {"smiles": "Nc1cccc(Cl)c1", "outcome": "inactive; negative"}, {"smiles": "BrCC(Br)C1CCC(Br)C(Br)C1", "note": "(stereo not given)", "outcome": "inactive; negative"}, {"smiles": "CCCCCCOC(=O)c1ccccc1", "outcome": "inactive; negative"}, {"smiles": "O=C1C2CC=CCC2C(=O)N1SC(Cl)(Cl)Cl", "note": "(stereo not given)", "outcome": "active; positive"}, {"smiles": "O=C(Cl)C(Cl)Cl", "outcome": "active; positive"}, {"smiles": "Nc1cccc2c(=O)[nH][nH]c(=O)c12", "outcome": "inactive; negative"}, {"smiles": "CC(C)[C@@H]1CC[C@@H](C)C[C@@H]1O", "outcome": "inactive; negative"}, {"smiles": "Cn1cnc2c1c(=O)[nH]c(=O)n2C", "outcome": "inactive; negative"}, {"smiles": "CCCCOCCO", "outcome": "inactive; negative"}, {"smiles": "F", "outcome": "inactive; negative"}, {"smiles": "O=S(=O)(c1ccc(Cl)cc1)c1ccc(Cl)cc1", "outcome": "inactive; negative"}, {"smiles": "COC(=O)c1ccc(C)cc1", "outcome": "inactive; negative"}, {"smiles": "COC(=O)CCC(=O)OC", "outcome": "inactive; negative"}, {"smiles": "O=C1OC(=O)c2c(Cl)c(Cl)c(Cl)c(Cl)c21", "outcome": "inactive; negative"}, {"smiles": "N#CC(Br)Br", "outcome": "active; positive"}, {"smiles": "COc1cc(-c2ccc(N=Nc3c(S(=O)(=O)O)cc4cc(S(=O)(=O)O)cc(N)c4c3O)c(OC)c2)ccc1N=Nc1c(S(=O)(=O)O)cc2cc(S(=O)(=O)O)cc(N)c2c1O", "outcome": "inactive; negative"}, {"smiles": "Clc1ccc2c(c1)Oc1ccc(Cl)cc1O2", "outcome": "inactive; negative"}, {"smiles": "Nc1ccccc1Cl", "outcome": "inactive; negative"}, {"smiles": "ClC=CCl", "outcome": "inactive; negative"}, {"smiles": "S=C(NC1CCCCC1)NC1CCCCC1", "outcome": "inactive; negative"}, {"smiles": "Cc1ccc(C)c([N+](=O)[O-])c1", "outcome": "active; positive"}, {"smiles": "C[C@](N)(Cc1ccc(O)c(O)c1)C(=O)O", "outcome": "inactive; negative"}, {"smiles": "Clc1cc2c(cc1Cl)Oc1cc(Cl)c(Cl)cc1O2", "outcome": "inactive; negative"}, {"smiles": "CC(C)Oc1ccc(Nc2ccccc2)cc1", "outcome": "inactive; negative"}, {"smiles": "c1cnc2c(c1)ccc1cccnc12", "outcome": "inactive; negative"}, {"smiles": "CC(=O)O[C@]1(C(C)=O)CC[C@H]2[C@@H]3C[C@H](C)C4=CC(=O)CC[C@]4(C)[C@H]3CC[C@@]21C", "outcome": "inactive; negative"}, {"smiles": "CCOc1ccc2c(c1)C(C)=CC(C)(C)N2", "outcome": "inactive; negative"}, {"smiles": "Clc1c(Cl)c(Cl)c2ccccc2c1Cl", "outcome": "inactive; negative"}, {"smiles": "Nc1ccc2c(c1)C(=O)c1ccccc1C2=O", "outcome": "active; positive"}, {"smiles": "Nc1ccc2ccccc2c1", "outcome": "active; positive"}, {"smiles": "FC(F)(F)c1ccc(Cl)cc1", "outcome": "inactive; negative"}, {"smiles": "CNc1ccc(O)cc1", "outcome": "active; positive"}, {"smiles": "COc1cc(N)ccc1C", "outcome": "active; positive"}, {"smiles": "Oc1c(Br)cc(Br)cc1Br", "outcome": "inactive; negative"}, {"smiles": "CCC(C)c1ccccc1O", "note": "(stereo not given)", "outcome": "inactive; negative"}, {"smiles": "Nc1ncn[nH]1", "outcome": "inactive; negative"}, {"smiles": "O=C(OOC(=O)c1ccccc1)c1ccccc1", "outcome": "inactive; negative"}, {"smiles": "Nc1cc(C(=O)O)c(O)c(S(=O)(=O)O)c1", "outcome": "inactive; negative"}, {"smiles": "CCOc1ccc2nc(N)sc2c1", "outcome": "active; positive"}, {"smiles": "Fc1ccccc1", "outcome": "active; positive"}, {"smiles": "O=c1oc2c(O)c(O)cc3c(=O)oc4c(O)c(O)cc1c4c23", "outcome": "inactive; negative"}, {"smiles": "CCCN(CCC)C(=O)SCC", "outcome": "inactive; negative"}, {"smiles": "CCNCC", "outcome": "inactive; negative"}, {"smiles": "CCCCCC(=O)OCC", "outcome": "inactive; negative"}, {"smiles": "CCCCCCCC/C=C\\CCCCCCCC(=O)O", "outcome": "inactive; negative"}, {"smiles": "[CH3][Sn]([CH3])([Cl])[Cl]", "outcome": "inactive; negative"}, {"smiles": "O=C=Nc1ccc(Cc2ccc(N=C=O)cc2)cc1", "outcome": "inactive; negative"}, {"smiles": "CCCCOCCOCCSC#N", "outcome": "inactive; negative"}, {"smiles": "ClC(Cl)(Cl)C1CO1", "note": "(stereo not given)", "outcome": "active; positive"}, {"smiles": "O=C(O)CC(=O)O", "outcome": "inactive; negative"}, {"smiles": "CN(C)c1nc(=O)n(C2CCCCC2)c(=O)n1C", "outcome": "inactive; negative"}, {"smiles": "CC(=O)C=CC1=C(C)CCCC1(C)C", "outcome": "inactive; negative"}, {"smiles": "Cc1ccc(Cl)cc1N", "outcome": "inactive; negative"}, {"smiles": "O=C(OC1CCCCC1)c1ccccc1C(=O)OC1CCCCC1", "outcome": "inactive; negative"}, {"smiles": "Cc1ccc([N+](=O)[O-])cc1C(=O)O", "outcome": "active; positive"}, {"smiles": "[O-]/[N+](=N\\O)c1ccccc1", "outcome": "active; positive"}, {"smiles": "O=C(O)C=Cc1ccc(O)c(O)c1", "outcome": "inactive; negative"}, {"smiles": "CCCCOC(=O)COc1ccc(Cl)cc1Cl", "outcome": "inactive; negative"}, {"smiles": "CC(=O)/C=C/c1ccccc1", "outcome": "active; positive"}, {"smiles": "N#CCCCl", "outcome": "active; positive"}, {"smiles": "ClC(Cl)(Cl)C(Cl)(Cl)Cl", "outcome": "inactive; negative"}, {"smiles": "C=CCC1(C(C)C#CCC)C(=O)N=C(O)N(C)C1=O", "note": "(stereo not given)", "outcome": "inactive; negative"}, {"smiles": "Clc1ccc(Cl)cc1", "outcome": "inactive; negative"}, {"smiles": "Brc1ccc(Oc2ccc(Br)cc2Br)c(Br)c1", "outcome": "inactive; negative"}, {"smiles": "c1ccc2c(c1)c1cccc3ccc4cccc2c4c31", "outcome": "active; positive"}, {"smiles": "CC(COc1ccccc1)N(CCCl)Cc1ccccc1", "note": "(stereo not given)", "outcome": "active; positive"}, {"smiles": "O=C(O)C=Cc1ccc(C=CC(=O)O)cc1", "outcome": "inactive; negative"}, {"smiles": "COP(=O)(OC)OC", "outcome": "active; positive"}, {"smiles": "CCCCCCCCCCCC(=O)N(CCO)CCO", "outcome": "inactive; negative"}, {"smiles": "O=P(OC(CCl)CCl)(OC(CCl)CCl)OC(CCl)CCl", "outcome": "active; positive"}, {"smiles": "ClNc1nc(NCl)nc(NCl)n1", "outcome": "inactive; negative"}, {"smiles": "C=Cc1ccccn1", "outcome": "active; positive"}, {"smiles": "COc1cc2c(cc1OC)[C@@]13CCN4CC5=CCO[C@H]6CC(=O)N2[C@H]1[C@H]6[C@H]5C[C@H]43", "outcome": "inactive; negative"}, {"smiles": "CN(C)N=Nc1nc[nH]c1C(N)=O", "outcome": "active; positive"}, {"smiles": "Nc1ccc(Cl)cc1Cl", "outcome": "active; weakly positive"}, {"smiles": "O=[N+]([O-])c1cc(Cl)c(Cl)cc1Cl", "outcome": "active; positive"}, {"smiles": "Nc1ncnc2c1ncn2[C@H]1CC[C@@H](CO)O1", "outcome": "active; positive"}, {"smiles": "O=C(O)COc1ccc(Cl)cc1Cl", "outcome": "inactive; negative"}, {"smiles": "CCc1ccccc1", "outcome": "inactive; negative"}, {"smiles": "O=[N+]([O-])c1cccc2cccc([N+](=O)[O-])c12", "outcome": "active; positive"}, {"smiles": "CCC(=O)O", "outcome": "inactive; negative"}, {"smiles": "Nc1ccc(Oc2ccc(N)cc2)cc1", "outcome": "active; positive"}, {"smiles": "CCN(CC)c1cccc(O)c1", "outcome": "active; positive"}, {"smiles": "CON", "outcome": "inactive; negative"}, {"smiles": "Nc1ccc2cc3ccccc3cc2c1", "outcome": "active; positive"}, {"smiles": "Nc1cc(S(=O)(=O)O)ccc1O", "outcome": "inactive; negative"}, {"smiles": "c1cc2c3c(c1)ccc1cccc(c13)C2", "outcome": "active; positive"}, {"smiles": "O=C(O)C(F)(F)C(F)(F)C(F)(F)C(F)(F)C(F)(F)F", "outcome": "inactive; negative"}, {"smiles": "CC[n+]1c(-c2ccccc2)c2cc(N)ccc2c2ccc(N)cc21", "outcome": "active; positive"}, {"smiles": "NCN", "outcome": "active; positive"}, {"smiles": "CC(=O)Nc1ccccc1C", "outcome": "active; positive"}, {"smiles": "C1OCOCO1", "outcome": "inactive; negative"}, {"smiles": "ClCBr", "outcome": "active; positive"}, {"smiles": "O=c1[nH]cc(F)c(=O)[nH]1", "outcome": "inactive; negative"}, {"smiles": "CCCCOC(=O)COc1cc(Cl)c(Cl)cc1Cl", "outcome": "inactive; negative"}, {"smiles": "COc1ccccc1[N+](=O)[O-]", "outcome": "active; positive"}, {"smiles": "Cc1c(C(=O)O)cccc1[N+](=O)[O-]", "outcome": "active; positive"}, {"smiles": "Nc1ccccc1[N+](=O)[O-]", "outcome": "inactive; negative"}, {"smiles": "CCOc1ccc(NC(C)=O)cc1N", "outcome": "active; positive"}, {"smiles": "C=C1CC/C=C(\\C)CC[C@@H]2[C@@H]1CC2(C)C", "outcome": "inactive; negative"}, {"smiles": "O=C(O)c1cccc(Cl)c1", "outcome": "inactive; negative"}, {"smiles": "Cc1cccc(N)c1C", "outcome": "active; positive"}, {"smiles": "Nc1cc([N+](=O)[O-])ccc1C(=O)O", "outcome": "active; positive"}, {"smiles": "[K+]", "outcome": "inactive; negative"}, {"smiles": "N#Cc1c(Cl)c(Cl)c(Cl)c(C#N)c1Cl", "outcome": "inactive; negative"}, {"smiles": "ClCCCCl", "outcome": "active; positive"}, {"smiles": "Clc1ccc2ccccc2c1", "outcome": "inactive; negative"}, {"smiles": "Oc1cccc(Cl)c1", "outcome": "inactive; negative"}, {"smiles": "OC1C2(Cl)C3(Cl)C4(Cl)C(Cl)(Cl)C5(Cl)C3(Cl)C1(Cl)C5(Cl)C24Cl", "note": "(stereo not given)", "outcome": "inactive; negative"}, {"smiles": "CCCC(C)(COC(N)=O)COC(=O)NC(C)C", "note": "(stereo not given)", "outcome": "inactive; negative"}, {"smiles": "CCCCCCCCOc1ccc(C(=O)O)cc1", "outcome": "inactive; negative"}, {"smiles": "ClC=CCCl", "outcome": "active; positive"}, {"smiles": "ClCc1ccccn1", "outcome": "active; positive"}, {"smiles": "N#CCCC(Br)(C#N)CBr", "note": "(stereo not given)", "outcome": "inactive; negative"}, {"smiles": "Cc1ccc(Cl)cc1", "outcome": "inactive; negative"}, {"smiles": "C(CCOCC1CO1)COCC1CO1", "note": "(stereo not given)", "outcome": "active; positive"}, {"smiles": "OCC(CO)(CBr)CBr", "outcome": "active; positive"}, {"smiles": "CCC1(c2ccccc2)C(=O)NC(=O)NC1=O", "outcome": "active; weakly positive"}, {"smiles": "CN(C)C(=S)N(C)C", "outcome": "inactive; negative"}, {"smiles": "CC(O)CBr", "note": "(stereo not given)", "outcome": "active; positive"}, {"smiles": "Nc1cc(Cl)cc(S(=O)(=O)O)c1O", "outcome": "inactive; negative"}, {"smiles": "O[C@@H]([C@H](O)[C@H](O)CBr)[C@H](O)CBr", "outcome": "active; positive"}, {"smiles": "O=C(O)C(Cl)(Cl)Br", "outcome": "active; positive"}, {"smiles": "C=CC(=O)OCC(CC)(COC(=O)C=C)COC(=O)C=C", "outcome": "inactive; negative"}, {"smiles": "Cc1ccc2c(C)cccc2c1", "outcome": "inactive; negative"}, {"smiles": "CC(=O)CC(=O)Nc1ccccc1", "outcome": "inactive; negative"}, {"smiles": "C(=C/c1ccccc1)/c1ccccc1", "outcome": "inactive; negative"}, {"smiles": "CCC=C1OC(=O)c2ccccc21", "outcome": "active; positive"}, {"smiles": "C=C(C)C", "outcome": "inactive; negative"}, {"smiles": "CC(C)(O)C#N", "outcome": "inactive; negative"}]}]}
